The test deals with MOLM-13 cells. Put plainly: MOLM-13 Cell Proliferation Assay (indicator of DHODH inhibition). It is filed as cell-based. To be noted: Homo sapiens, 72 Hours of culture, CellTiter-Glo, no uridine. An outline of the steps: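 Low-passage MOLM-13 cells (10^4/well) in RPMI 1640 + 10% FBS exposed to compound (0.5% DMSO final) for 72 h at 37 °C, 5% CO2. Viability read by CellTiter-Glo luminescence; growth reflects de novo pyrimidine synthesis dependent on DHODH.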
For orientation: Cellular ATP, detected with luciferase, serves as a proxy for viable cell number.

As a reminder, the IC50 is the midpoint of a concentration-inhibition curve. Read a low IC50 as greater potency. `N#Cc1cc(C#N)nc(N2CCc3c([nH]c4cc(F)c(Cl)cc34)C2c2cccc(F)c2F)n1` (centres unmarked) [Compound 227, 2-[6-chloro-1-(2,3-difluorophenyl)-7-fluoro-1,3,4,9-tetrahydro-2H-pyrido[3,4-b]indol-2-yl]pyrimidine-4,6-dicarbonitrile]: half-maximal inhibition (IC50) was put at 0.0164 µM.

In the case of `O=C(O)COCCNc1ncc([C@H]2c3[nH]c4ccc(Cl)cc4c3CCN2c2nc(C(F)(F)F)nc(C(F)(F)F)n2)cn1` [Compound 539, {2-[(5-{(1S)-2-[4,6-bis(trifluoromethyl)-1,3,5-triazin-2-yl]-6-chloro-2,3,4,9-tetrahydro-1H-pyrido[3,4-b]indol-1-yl}pyrimidin-2-yl)amino]ethoxy}acetic acid], the IC50 amounted to 0.012 µM.

As for `FC(F)(F)c1ccnc(N2CCc3c([nH]c4ccc(Cl)cc34)C2c2ccc(N3CCOCC3)cc2)n1` (centres unmarked) [Compound 262, 6-chloro-1-[4-(morpholin-4-yl)phenyl]-2-[4-(trifluoromethyl)pyrimidin-2-yl]-2,3,4,9-tetrahydro-1H-pyrido[3,4-b]indole], half-maximal inhibition (IC50) was put at 0.0013 µM. The value for `OCCCc1ccc(C2c3[nH]c4cc(F)c(Cl)cc4c3CCN2c2nccc(C(F)(F)F)n2)cc1` (centres unmarked) [Compound 156, 3-(4-{6-chloro-7-fluoro-2-[4-(trifluoromethyl)pyrimidin-2-yl]-2,3,4,9-tetrahydro-1H-pyrido[3,4-b]indol-1-yl}phenyl)propan-1-ol] was 0.004 µM; that for `Fc1cnc(N2CCc3c([nH]c4cc(F)c(Cl)cc34)C2c2ccc(F)cc2F)nc1` (centres unmarked) [Compound 12, 6-chloro-1-(2,4-difluorophenyl)-7-fluoro-2-(5-fluoropyrimidin-2-yl)-2,3,4,9-tetrahydro-1H-pyrido[3,4-b]indole] was 0.0358 µM; that for `Cc1nc(Cl)nc(N2CCc3c([nH]c4ccc(Cl)cc34)C2c2cnc(N3CCOCC3)nc2)n1` (centres unmarked) [Compound 289, 6-chloro-2-(4-chloro-6-methyl-1,3,5-triazin-2-yl)-1-[2-(morpholin-4-yl)pyrimidin-5-yl]-2,3,4,9-tetrahydro-1H-pyrido[3,4-b]indole] was 0.0271 µM. Under `Cc1ccc([C@H]2c3[nH]c4ccc(Cl)cc4c3CCN2c2nc(C)c(F)c(C)n2)cc1` [Compound 395, (1S)-6-chloro-2-(5-fluoro-4,6-dimethylpyrimidin-2-yl)-1-(4-methylphenyl)-2,3,4,9-tetrahydro-1H-pyrido[3,4-b]indole] stands 0.0044 µM; under `Cc1cc(C)nc(N2CCc3c([nH]c4cc(F)c(Cl)cc34)C2c2cccc(F)c2F)n1` (centres unmarked) [Compound 129, 6-chloro-1-(2,3-difluorophenyl)-2-(4,6-dimethylpyrimidin-2-yl)-7-fluoro-2,3,4,9-tetrahydro-1H-pyrido[3,4-b]indole], 0.0076 µM; under `Cc1cnn(-c2ccc3[nH]c4c(c3c2)CCN(c2nc(C(F)(F)F)cc(C(F)(F)F)n2)C4c2ccc(N3CCOCC3)nc2)n1` (centres unmarked) [Compound 455, 2-[4,6-bis(trifluoromethyl)pyrimidin-2-yl]-6-(4-methyl-2H-1,2,3-triazol-2-yl)-1-[6-(morpholin-4-yl)pyridin-3-yl]-2,3,4,9-tetrahydro-1H-pyrido[3,4-b]indole], 0.0052 µM. In the case of `Cc1nc(C)nc(N2CCc3c([nH]c4ccc(-n5nccn5)cc34)C2c2cnc(N3CCOCC3)nc2)n1` (centres unmarked) [Compound 300, 2-(4,6-dimethyl-1,3,5-triazin-2-yl)-1-[2-(morpholin-4-yl)pyrimidin-5-yl]-6-(2H-1,2,3-triazol-2-yl)-2,3,4,9-tetrahydro-1H-pyrido[3,4-b]indole], the IC50 worked out at 0.0205 µM. The compound `CN(C)c1ccc(C2c3[nH]c4cc(F)c(Cl)cc4c3CCN2c2nccc(C(F)(F)F)n2)c(F)c1F` (centres unmarked) [Compound 173, 4-{6-chloro-7-fluoro-2-[4-(trifluoromethyl)pyrimidin-2-yl]-2,3,4,9-tetrahydro-1H-pyrido[3,4-b]indol-1-yl}-2,3-difluoro-N,N-dimethylaniline] registered an IC50 of 0.0086 µM. As for `Fc1c(Cl)ccc2[nH]c3c(c12)CCN(c1nccc(C(F)(F)F)n1)C3c1cnc(-n2cncn2)nc1` (centres unmarked) [Compound 230, 6-chloro-5-fluoro-1-[2-(1H-1,2,4-triazol-1-yl)pyrimidin-5-yl]-2-[4-(trifluoromethyl)pyrimidin-2-yl]-2,3,4,9-tetrahydro-1H-pyrido[3,4-b]indole], 0.0083 µM corresponded to half-maximal inhibition (IC50). In the case of `CC(C)c1ccc(C2c3[nH]c4cc(F)c(Cl)cc4c3CCN2c2nccc(C#N)n2)cc1` (centres unmarked) [Compound 55, 2-{6-chloro-7-fluoro-1-[4-(propan-2-yl)phenyl]-1,3,4,9-tetrahydro-2H-pyrido[3,4-b]indol-2-yl}pyrimidine-4-carbonitrile], the IC50 turned out to be 0.0131 µM. Compound `Cc1nc(N2CCc3c([nH]c4cc(F)c(Cl)cc34)C2c2cccc(F)c2F)ncc1F` (centres unmarked) [Compound 124, 6-chloro-1-(2,3-difluorophenyl)-7-fluoro-2-(5-fluoro-4-methylpyrimidin-2-yl)-2,3,4,9-tetrahydro-1H-pyrido[3,4-b]indole] registered an IC50 of 0.0086 µM.

Regarding `Fc1ccccc1C1c2[nH]c3ccc(Cl)cc3c2CCN1c1nccc(C(F)(F)F)n1` (centres unmarked) [Compound 341, 6-chloro-1-(2-fluorophenyl)-2-[4-(trifluoromethyl)pyrimidin-2-yl]-2,3,4,9-tetrahydro-1H-pyrido[3,4-b]indole], the IC50 is 0.0068 µM. Under `Fc1ccc(C2c3[nH]c4ccc(Cl)cc4c3CCN2c2ncc(F)cn2)cc1` (centres unmarked) [Compound 3, 6-chloro-1-(4-fluorophenyl)-2-(5-fluoropyrimidin-2-yl)-2,3,4,9-tetrahydro-1H-pyrido[3,4-b]indole] stands 0.0296 µM; under `Cc1cccc(C2c3[nH]c4ccc(Cl)cc4c3CCN2c2nccc(C(F)(F)F)n2)c1F` (centres unmarked) [Compound 259, 6-chloro-1-(2-fluoro-3-methylphenyl)-2-[4-(trifluoromethyl)pyrimidin-2-yl]-2,3,4,9-tetrahydro-1H-pyrido[3,4-b]indole], 0.001 µM; under `Fc1ccc(C2c3[nH]c4ccc(F)c(F)c4c3CCN2c2ncc(Cl)cn2)cc1` (centres unmarked) [Compound 85, 2-(5-chloropyrimidin-2-yl)-5,6-difluoro-1-(4-fluorophenyl)-2,3,4,9-tetrahydro-1H-pyrido[3,4-b]indole], 0.162 µM. The value for `CN(C)c1ccc2[nH]c3c(c2c1)CCN(c1nccc(C(F)(F)F)n1)C3c1cnc(N2CCOCC2)nc1` (centres unmarked) [Compound 329, N,N-dimethyl-1-[2-(morpholin-4-yl)pyrimidin-5-yl]-2-[4-(trifluoromethyl)pyrimidin-2-yl]-2,3,4,9-tetrahydro-1H-pyrido[3,4-b]indol-6-amine] was 0.0354 µM; that for `FC(F)(F)c1cnc(N2CCc3c([nH]c4ccc(Cl)cc34)C2c2cnc(N3CCOCC3)nc2)nn1` (centres unmarked) [Compound 458, 6-chloro-1-[2-(morpholin-4-yl)pyrimidin-5-yl]-2-[6-(trifluoromethyl)-1,2,4-triazin-3-yl]-2,3,4,9-tetrahydro-1H-pyrido[3,4-b]indole] was 0.0046 µM; that for `Fc1ccc(C2c3[nH]c4cc(F)c(Cl)cc4c3CCN2c2ncc(C(F)(F)F)cn2)cc1` (centres unmarked) [Compound 98, 6-chloro-7-fluoro-1-(4-fluorophenyl)-2-[5-(trifluoromethyl)pyrimidin-2-yl]-2,3,4,9-tetrahydro-1H-pyrido[3,4-b]indole] was 0.0416 µM. `Cc1ccc(C2c3[nH]c4ccc(Cl)cc4c3CCN2c2ncnc(C)n2)cc1` (centres unmarked) [Compound 322, 6-chloro-1-(4-methylphenyl)-2-(4-methyl-1,3,5-triazin-2-yl)-2,3,4,9-tetrahydro-1H-pyrido[3,4-b]indole]: the IC50 worked out at 0.0259 µM. Under `Fc1cnc(N2CCc3c([nH]c4cc(F)c(Cl)cc34)C2c2cccc(F)c2)nc1` (centres unmarked) [Compound 58, 6-chloro-7-fluoro-1-(3-fluorophenyl)-2-(5-fluoropyrimidin-2-yl)-2,3,4,9-tetrahydro-1H-pyrido[3,4-b]indole] stands 0.0898 µM. Compound `Fc1ccc(C2c3[nH]c4ccc(Cl)cc4c3CCN2c2ncc(Cl)cn2)cc1` (centres unmarked) [Compound 1, 6-chloro-2-(5-chloropyrimidin-2-yl)-1-(4-fluorophenyl)-2,3,4,9-tetrahydro-1H-pyrido[3,4-b]indole] showed an IC50 of 0.0318 µM. On to `Cc1ccc(C2c3[nH]c4ccc(F)cc4c3CCN2c2ncnc(C(F)(F)F)n2)c(F)c1F` (centres unmarked) [Compound 494, 1-(2,3-difluoro-4-methylphenyl)-6-fluoro-2-[4-(trifluoromethyl)-1,3,5-triazin-2-yl]-2,3,4,9-tetrahydro-1H-pyrido[3,4-b]indole], for which 0.012 µM corresponded to half-maximal inhibition (IC50). With `OCc1ccc(C2c3[nH]c4cc(F)c(Cl)cc4c3CCN2c2nccc(C(F)(F)F)n2)cc1` (centres unmarked) [Compound 166, (4-{6-chloro-7-fluoro-2-[4-(trifluoromethyl)pyrimidin-2-yl]-2,3,4,9-tetrahydro-1H-pyrido[3,4-b]indol-1-yl}phenyl)methanol], the half-inhibitory concentration (IC50) is 0.0071 µM.

For the compound `Clc1ccc2[nH]c3c(c2c1)CCN(c1nccc(-c2ccccc2)n1)C3c1cnc(N2CCOCC2)nc1` (centres unmarked) [Compound 475, 6-chloro-1-[2-(morpholin-4-yl)pyrimidin-5-yl]-2-(4-phenylpyrimidin-2-yl)-2,3,4,9-tetrahydro-1H-pyrido[3,4-b]indole], the IC50 is 0.117 µM.

As for `N#Cc1ccc(C2c3[nH]c4cc(F)c(Cl)cc4c3CCN2c2nc(C(F)(F)F)cc(C(F)(F)F)n2)cc1` (centres unmarked) [Compound 188, 4-{2-[4,6-bis(trifluoromethyl)pyrimidin-2-yl]-6-chloro-7-fluoro-2,3,4,9-tetrahydro-1H-pyrido[3,4-b]indol-1-yl}benzonitrile], the IC50 amounted to 0.0006 µM. Regarding `Fc1c(Cl)ccc2[nH]c3c(c12)CCN(c1nccc(C(F)(F)F)n1)[C@H]3c1ccc(Cl)cc1` [Compound 182, (1S)-6-chloro-1-(4-chlorophenyl)-5-fluoro-2-[4-(trifluoromethyl)pyrimidin-2-yl]-2,3,4,9-tetrahydro-1H-pyrido[3,4-b]indole], the IC50 worked out at 0.0013 µM.

The values are drawn from patent US20250186437A1, “CARBOLINE COMPOUNDS AND USE THEREOF” (PTC Therapeutics, Inc., priority 2021, published 2025).
